Ten molecules from ChEMBL document CHEMBL1201862, “PubChem BioAssay data set” (2004) can be followed below.

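Assay format: 96-well plates, 48-hour exposure. GI50 is the concentration that inhibits growth by half.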 Activity calls are given as the source filed them. Rule as the data show it: active = GI50 up to about 1.1 µM and inactive = higher.

Holding throughout (experiment): DTP human tumour cell line panel, 48 h
Test [1] deals with NCI/ADR-RES.
The subject of test [2] is HL-60.
Test [3] concerns A549.
The subject of test [4] is NCI-H226.
Test [5] relates to PC-3.
In test [6] the test system is NCI-H460.
Test [7] concerns SF-268.
The subject of test [8] is SF-295.
The subject of test [9] is U-251.
In test [10] the test system is SK-MEL-5.
The test system of test [11] is DU-145.
Test [12] concerns SN12C.
Test [13] deals with RPMI-8226.
The test system of test [14] is LOX IMVI.
In test [15] the test system is IGROV-1.
Test [16] has as its system SW-620.
Test [17] concerns MCF7.
Test [18] has as its system UO-31.
For test [19], the system named is HCC 2998.
The test system of test [20] is T47D.

As usually defined, the GI50 is the concentration giving 50% growth inhibition.

Consider `NS(=O)(=O)c1ccc(Nc2c3ccccc3nc3c(C(=O)NCCO)cccc23)cc1`, for which the GI50 in test [1] was 0.408 µM (active); in test [2], 0.243 µM (active); in test [3] it was 0.178 µM (active); in test [4], 0.113 µM (active); in [5] it was 0.177 µM (active); in [6], 0.0439 µM (active). Moreover, the GI50 in [7] is 0.141 µM (active); in test [8] it was 0.191 µM (active); in [9] it was 0.0728 µM (active); in test [10], 0.0853 µM (active); in test [11], 0.165 µM (active); in test [12] it was 0.176 µM (active). The GI50 in test [13] is 0.0676 µM (active); in [14] it was 0.124 µM (active); in test [15], 0.115 µM (active); in test [16], 0.118 µM (active); in test [17], 0.0373 µM (active); in test [18], 0.181 µM (active). Besides, the figures for the GI50 in test [19] and in [20] were 0.182 µM (active) and 0.03 µM (active), respectively.

As for `CCOC(=O)C(=O)/C(=C\NC(=S)Nc1ccccc1Cl)C(=O)OCC`, the GI50 in [1], in [2], in test [3], in test [4], in [5] and in test [6] was > 100 µM (inactive) throughout. Also, the GI50 in [7], in test [8], in test [9], in test [10], in [11] and in [12] was > 100 µM (inactive) throughout. The GI50 in test [13], in [14], in [15], in test [16], in [17] and in test [18] was > 100 µM (inactive) each time. Also, the GI50 in [19] and in [20] was > 100 µM (inactive) throughout.

Regarding `O=C1[C@H](c2ccccc2)C2c3ccccc3CCN12` (stereo partly drawn), the GI50 in [1], in test [2], in test [3], in [4], in test [5] and in test [6] was > 10 µM (inactive) throughout. The GI50 in test [7], in test [8], in [9], in [10], in [11] and in test [12] was > 10 µM (inactive) in each case. The GI50 in test [13] is > 10 µM (inactive); in [14], > 10 µM (inactive); in test [15], > 10 µM (inactive); in test [16], > 10 µM (inactive); in [17], > 10 µM (inactive); in test [18], > 100 µM (inactive). Besides, the GI50 in test [19] and in [20] was > 10 µM (inactive) throughout.

For the molecule `Cc1cc2c(C(C)C)c(O)c(O)c(/C=N/c3cc(C(F)(F)F)ccc3Cl)c2c(O)c1-c1c(C)cc2c(C(C)C)c(O)c(O)c(/C=N/c3cc(C(F)(F)F)ccc3Cl)c2c1O`, the GI50 was 63.5 µM (inactive) in test [1]; 26.9 µM (inactive) in [2]; 38.5 µM (inactive) in test [3]; 29 µM (inactive) in test [4]; 35 µM (inactive) in test [5]; 31.3 µM (inactive) in test [6]. Also, the GI50 in test [7] is 37.2 µM (inactive); in [9] it was 19.3 µM (inactive); in test [10], 23.6 µM (inactive); in test [11], > 100 µM (inactive); in test [12], 49.1 µM (inactive); in test [13], 50.7 µM (inactive). Also, the GI50 was 22.6 µM (inactive) in test [14]; 25.1 µM (inactive) in test [15]; 58.2 µM (inactive) in [16]; 27.7 µM (inactive) in test [17]; 30.2 µM (inactive) in [18]; 62.7 µM (inactive) in [19]. The GI50 in test [20] is 29.6 µM (inactive).

`CSc1c(C(=O)Nc2ccccc2)c(N)n(N)c(=O)c1C#N`: the GI50 in test [1], in [2], in test [3], in [4], in [5] and in [6] was > 100 µM (inactive) in each case. In addition, the GI50 in [7], in [9], in [10], in test [11], in test [12] and in [13] was > 100 µM (inactive) in each case. Also, the GI50 in test [14], in [15], in test [16], in test [17], in [18] and in [19] was > 100 µM (inactive) each time. For the same molecule, in test [20], the GI50 is > 100 µM (inactive).

Turning to `O=C1/C(=C/c2ccc(O)cc2)Oc2ccccc21`, the GI50 in test [1] is > 100 µM (inactive); in test [2], 35.6 µM (inactive); in test [3], > 100 µM (inactive); in test [4], > 100 µM (inactive); in [5] it was > 100 µM (inactive); in test [6], > 100 µM (inactive). Moreover, the GI50 in test [7], in test [8], in test [9], in test [10], in test [11] and in test [12] was > 100 µM (inactive) each time. The GI50 in test [13] was 59.2 µM (inactive); in test [14], > 100 µM (inactive); in test [15], > 100 µM (inactive); in test [16], > 100 µM (inactive); in test [17], > 100 µM (inactive); in test [19], > 100 µM (inactive). Further, in test [20], the GI50 is > 100 µM (inactive).

Take `CC1=C([S+]([O-])c2ccc(C)cc2)CCC2(CCCCO2)O1` (stereo not drawn): the GI50 was > 100 µM (inactive) in [1]; 23.3 µM (inactive) in test [2]; > 100 µM (inactive) in test [4]; > 100 µM (inactive) in test [5]; > 100 µM (inactive) in [6]; > 100 µM (inactive) in test [7]. For the same molecule, the GI50 was > 100 µM (inactive) in [8]; > 100 µM (inactive) in [9]; 33.3 µM (inactive) in test [10]; > 100 µM (inactive) in test [11]; > 100 µM (inactive) in [12]; 66.5 µM (inactive) in [13]. For the same molecule, the GI50 in test [14], in test [15], in test [16], in test [17], in test [18] and in [19] was > 100 µM (inactive) in each case. Besides, the GI50 in [20] was > 100 µM (inactive).

Take `Cc1cc2c(cc1Cl)SC(NN(C)C)=NS2(=O)=O`: the GI50 in test [1], in test [2], in test [3], in test [4], in [5] and in test [6] was > 10 µM (inactive) in each case. Moreover, the GI50 in test [7], in [8], in [9], in test [10], in test [11] and in test [12] was > 10 µM (inactive) throughout. In addition, the GI50 in test [13], in [14], in test [15], in test [16], in test [17] and in test [19] was > 10 µM (inactive) throughout. The GI50 in [20] was > 10 µM (inactive).

Turning to `COC(=O)Cc1ccc2c(cnn2-c2ccccc2)c1OC`, the GI50 in [1], in test [2], in test [3], in test [4], in test [5] and in test [6] was > 10 µM (inactive) in each case. The GI50 in test [7], in test [8], in test [9], in test [10], in test [11] and in [12] was > 10 µM (inactive) in each case. Also, the GI50 in test [13], in test [14], in test [15], in test [16], in test [17] and in [19] was > 10 µM (inactive) each time. For the same molecule, the GI50 in test [20] was > 10 µM (inactive).

Consider `Cc1cc(N)ccc1C=O`, for which the GI50 in test [1], in [2], in [3], in [4], in [5] and in [6] was > 100 µM (inactive) in each case. The GI50 in test [7], in [9], in [10], in test [11], in test [12] and in test [13] was > 100 µM (inactive) in each case. The GI50 in test [14], in test [15], in test [16], in [17], in test [18] and in test [19] was > 100 µM (inactive) each time. The GI50 in [20] was > 100 µM (inactive).
